Reference: US7414071B2, “Methods of treatment with selective EP4 receptor agonists” (Pfizer Inc., priority 2002, dated 2008)

Experiments:
[1] = target: T1, rat EP4 receptor (Rattus norvegicus, UniProt P43114); assay: Whole cell 3H-PGE2 binding with Scatchard analysis in 293S transfectants; details: cell line selected for compound screening
T1 construct: expressed in transfected cells
Description: Clonal cell lines expressing the maximal number of receptors are chosen following a whole cell ^3H-PGE2 binding assay using unlabeled PGE2 as a competitor. […] Constitutive expression of the receptor in parental 293-S cells is negligible. A stable cell line containing the rat EP4 receptor is grown in Dulbecco's Mosified Eagle Medium/F12 (DMEM/F12) containing 10% fetal bovine serum and G418 (500 μg/ml) to 80% confluency.

[2] = target: T2, human EP1 receptor (Homo sapiens, UniProt P34995); assay: Human EP1 receptor binding assay (displacement of 3H-prostaglandin E2 from 293S cell membranes); details: displacement of 3H-prostaglandin E2, 293S membranes
T2 construct: expressed in transfected cells; membranes
T2 sequence (P34995 1-402): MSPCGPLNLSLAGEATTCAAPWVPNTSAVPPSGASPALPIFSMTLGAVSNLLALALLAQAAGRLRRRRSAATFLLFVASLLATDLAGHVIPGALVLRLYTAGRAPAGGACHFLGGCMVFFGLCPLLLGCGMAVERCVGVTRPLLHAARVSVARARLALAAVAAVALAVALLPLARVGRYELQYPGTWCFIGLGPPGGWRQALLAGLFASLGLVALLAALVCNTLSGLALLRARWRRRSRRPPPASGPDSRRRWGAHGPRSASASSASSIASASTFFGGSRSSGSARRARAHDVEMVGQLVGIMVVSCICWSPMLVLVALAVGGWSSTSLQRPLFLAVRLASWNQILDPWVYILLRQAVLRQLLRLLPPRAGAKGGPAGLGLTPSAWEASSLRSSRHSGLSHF
Description: (§1) The compounds of Formula I, which are useful in the methods of the present invention, bind to the prostaglandin E2 type 4 receptor (EP4 receptor). The full length coding sequence for the human EP1 receptor is made in accordance with the procedure in Funk et al., Journal of Biological Chemistry, 1993, 268, 26767-26772. The full length rat EP2 receptor is made in accordance with the procedure in Nemoto et al., Prostaglandins and other Lipid Mediators, 1997, 54, 713-725. The full length coding sequence for the human EP3 receptor is made in accordance with the procedure in Regan et al., British Journal of Pharmacology, 1994, 112, 377-385. The full length coding sequence for the rat EP4 receptor is made in accordance with the procedure in Sando et al., Biochem. Biophys. Res. Comm. 1994, 200, 1329-1333. These full length receptors are used to prepare 293S cells expressing the human EP1, rat EP2, human EP3 or rat EP4 receptors.
(§2) The full length receptors described above are used to prepare 293S cells expressing the EP1, EP2, EP3, and EP4 receptors. […]
(§3) Membrane Preparation: All operations are performed at 4° C. […] Pelleted membranes are resuspended to 3-10 mg protein per ml, protein concentration being determined of the method of Bradford [Bradford, M., Anal. Biochem. 1976, 72, 248]. […]

[3] = target: T3, human EP3 receptor (Homo sapiens, UniProt P43115); assay: Human EP3 receptor binding assay (displacement of 3H-prostaglandin E2 from 293S cell membranes); details: displacement of 3H-prostaglandin E2, 293S membranes
T3 construct: expressed in transfected cells; membranes
T3 sequence (P43115 1-390): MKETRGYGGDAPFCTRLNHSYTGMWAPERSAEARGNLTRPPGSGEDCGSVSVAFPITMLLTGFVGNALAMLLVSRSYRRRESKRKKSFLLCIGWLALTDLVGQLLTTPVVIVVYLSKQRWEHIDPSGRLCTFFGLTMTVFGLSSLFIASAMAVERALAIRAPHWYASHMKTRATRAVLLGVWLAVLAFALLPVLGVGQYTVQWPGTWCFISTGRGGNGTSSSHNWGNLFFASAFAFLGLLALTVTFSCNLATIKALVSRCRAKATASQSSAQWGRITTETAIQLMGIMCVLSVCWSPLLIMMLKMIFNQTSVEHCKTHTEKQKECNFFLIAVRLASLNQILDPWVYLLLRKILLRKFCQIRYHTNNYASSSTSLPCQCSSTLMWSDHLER
Description: as §1, §2, §3

[4] = target: T4, rat EP2 receptor (Rattus norvegicus, UniProt Q62928); assay: Rat EP2 receptor binding assay (displacement of 3H-prostaglandin E2 from 293S cell membranes); details: displacement of 3H-prostaglandin E2, 293S membranes
T4 construct: The full length rat EP2 receptor is made in accordance with the procedure in Nemoto et al; expressed in transfected cells; membranes
T4 sequence (Q62928 whole entry): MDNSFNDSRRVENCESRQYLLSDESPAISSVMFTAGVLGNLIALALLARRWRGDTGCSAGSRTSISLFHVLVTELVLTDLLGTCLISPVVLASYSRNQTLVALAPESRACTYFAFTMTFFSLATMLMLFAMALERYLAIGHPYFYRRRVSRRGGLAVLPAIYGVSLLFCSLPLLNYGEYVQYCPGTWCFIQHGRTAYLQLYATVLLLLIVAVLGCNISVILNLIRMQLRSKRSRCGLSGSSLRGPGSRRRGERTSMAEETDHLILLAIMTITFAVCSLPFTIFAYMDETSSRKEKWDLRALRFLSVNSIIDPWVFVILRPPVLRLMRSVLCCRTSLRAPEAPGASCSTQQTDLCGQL
Description: as §1, §2, §3

T1 sequence (P43114 whole entry): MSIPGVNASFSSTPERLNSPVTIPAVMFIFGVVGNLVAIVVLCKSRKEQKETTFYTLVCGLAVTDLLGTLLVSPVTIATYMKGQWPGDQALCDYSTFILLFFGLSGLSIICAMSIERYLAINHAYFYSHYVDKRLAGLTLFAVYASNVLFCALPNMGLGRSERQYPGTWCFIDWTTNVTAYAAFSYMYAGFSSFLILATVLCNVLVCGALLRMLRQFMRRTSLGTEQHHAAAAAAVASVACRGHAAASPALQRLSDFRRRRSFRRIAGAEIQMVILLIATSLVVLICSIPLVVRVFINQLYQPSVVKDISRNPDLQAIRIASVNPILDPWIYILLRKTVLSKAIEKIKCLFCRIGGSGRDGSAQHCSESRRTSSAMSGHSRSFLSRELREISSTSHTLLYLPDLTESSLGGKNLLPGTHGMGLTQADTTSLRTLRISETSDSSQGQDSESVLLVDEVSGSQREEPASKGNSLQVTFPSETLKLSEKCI

Kd [1] [nM]	IC50 [2] [nM]	IC50 [3] [nM]	IC50 [4] [nM]	Compound
2.9	–	–	–	CCCCC[C@H](O)/C=C/[C@H]1[C@H](O)CC(=O)[C@@H]1C/C=C\CCCC(=O)O [PGE2, Prostaglandin E2]
–	> 1000	> 1000	463	O=C(O)c1ccc(CCCN2C(=O)CC[C@@H]2CC[C@@H](O)Cc2cccc(C(F)(F)F)c2)s1 [Compound 3M]
